This note sets out measurements from patent publication US5428168A, “Lactol PAF antagonists” (British Biotech Pharmaceuticals Limited, priority 1990, dated 1995).

pIC50: −log10 of the molar value.

Usually pIC50 stands for −log10 of the IC50, conventionally taken in molar units. Higher therefore signals a low IC50. For orientation: ED50 means the dose at which the effect has come halfway, by size or by number of responders.

Test [1] has as its target T1, PAF receptor (Homo sapiens, UniProt P25105).
T1 construct: Platelet concentrates were obtained from a hospital blood bank; from tissue; host or cells: human platelets (plasma membrane fraction of lysed platelets from hospital blood bank concentrates)
The experiment in a line: Inhibition of [3H]-PAF receptor binding to human platelet plasma membrane (isotopic labelling and filtration). The settings on record: human platelet membranes, 0.5 nM [3H]-PAF, 0° C., 1 hour. How it is done: Compounds of general formula I inhibit PAF-induced functions in both the cellular and tissue levels by changing the PAF binding to its specific receptor site. The ability of compounds of general formula I to inhibit the binding of PAF to its specific receptor binding site on human platelet plasma membranes was measured according to the pharmacological example. […] Platelet concentrates were obtained from a hospital blood bank. These platelet concentrates (500-2500 ml.) were centrifuged at 800 rpm for 10 minutes in a SORVALL RC3B centrifuge to remove the red blood cells present. (The word SORVALL is a trade mark.) The supernatant was subsequently centrifuged at 3,000 rpm in a SORVALL RC3B centrifuge to pellet the platelets present. The platelet rich pellets were resuspended in a minimum volume of buffer (150 mM NaCl, 10 mM Tris, 2 mM EDTA, pH 7.5) and layered onto Ficoll-Paque gradients, 9 ml platelet concentrate to 2 ml Ficoll, and centrifuged at 1,900 rpm for 15 minutes in a SORVALL RT6000 centrifuge. This step removes the residual red blood cells and other nonspecific material such as lymphocytes from the preparation. The platelets which form a band between the plasma and the Ficoll were removed, resuspended in the above buffer and centrifuged at 3,000 rpm for 10 minutes in a SORVALL RT6000 centrifuge. The pelleted platelets were resuspended in buffer (10 mM Tris, 5mM MgCl2, 2 mM EDTA, pH 7.0), snap freezed in liquid N2 and allowed to thaw slowly at room temperature in order to lyse the platelets. The latter step was repeated at least 3 times to ensure proper lysis. The lysed platelets were centrifuged at 3,000 rpm for 10 minutes in a SORVALL RT6000 centrifuge and resuspended in buffer. The latter step was repeated twice in order to remove any cytoplasmic proteins which may hydrolyse the […]. The prepared platelet membranes may be stored at -70° C. After thawing the prepared membranes were centrifuged in a SORVALL RT6000 at 3,000 rpm for 10 minutes and resuspended in assay buffer. The assay was conducted by preparing a series of Tris-buffered solutions of the selected antagonist of predetermined concentrations. […] Incubation was initiated by the addition of 100 μg of the isolated membrane fraction to each of the above solutions at 0° C. […] (The word WHATMAN is a trade mark.) The residue in each case was rapidly washed 4 times with 5 ml cold (4° C.) Tris-buffer solution. […] % Inhibition=[(TB-TBA)/SB]x100 where the specific binding SB=TB-NSB […]

In test [2] the test system is PAF-induced hypotension in the rat. The experiment in a line: Reversal of PAF-induced hypotension in anaesthetised rats. Particulars: for ED50: iv, i.v. bolus, PAF 100 ng/kg/min i.v., straight line interpolation, read-out: ED50 (dose to cause 50% reversal of the hypotensive PAF response); for inhibition of PAF-induced hypotension: @ 1 mg/kg i.v. Type of test: in vivo, rat (male Sprague-Dawley). The protocol: Male Sprague-Dawley rats (300-400 g) were anaesthetised with a mixture of sodium pentobarbitone, 22.5 mg·kg^-1 and thiopental 62.5 mg·kg^-1. Through a midline incision in the neck, the trachea was cannulated and the animals breathed spontaneously. A carotid artery was cannulated for the measurement of blood pressure and this signal was used to trigger a rate meter to measure heart rate. Both jugular veins were cannulated: one for the infusion of PAF and the other for the bolus administration of test compounds.
PAF, 100 ng·kg^-1 .min^-1 was infused i.v. until a sustained fall in mean blood pressure of 50 mmHg was achieved. […] The peak of this reversal was measured and the dose to cause a 50% reversal of the hypotensive PAF response (ED50) calculated by straight line interpolation and the results are presented in Table 2.

T1 sequence (P25105 whole entry): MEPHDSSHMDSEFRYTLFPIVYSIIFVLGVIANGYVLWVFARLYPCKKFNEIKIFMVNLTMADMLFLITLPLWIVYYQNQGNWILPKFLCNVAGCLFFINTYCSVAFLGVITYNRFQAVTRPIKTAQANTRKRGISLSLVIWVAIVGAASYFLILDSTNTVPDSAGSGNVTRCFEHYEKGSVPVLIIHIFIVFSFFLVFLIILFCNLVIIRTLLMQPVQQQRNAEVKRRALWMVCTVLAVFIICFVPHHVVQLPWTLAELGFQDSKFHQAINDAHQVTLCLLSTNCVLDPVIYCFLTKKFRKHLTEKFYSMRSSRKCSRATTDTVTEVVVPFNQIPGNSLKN

As for `COc1ccc([C@H]2CC[C@H](OCCCCCc3cccnc3)O2)cc1OC` (relative stereo) [Example 5A, O-(5-(3-Pyridyl)pentyl)-5-(3,4-dimethoxyphenyl)-gamma-butyrolactol ether], in test [1], the pIC50 is 4.92. As for `COc1ccc(C2CCC(OCCCCn3c(C)nc4cnccc43)O2)cc1OC` (stereo not drawn) [Example 31, O-(4-(1H-2-Methylimidazo[4,5-c]pyridyl)butyl)-5-(3,4-dimethoxyphenyl)-gamma-butyrolactol ether], the ED50 in test [2] was 3 µg/kg. In the case of `COc1ccc(C2CCC(OCc3csc(-c4cccnc4)n3)O2)cc1OC` (stereo not drawn) [Example 27, O-((2-(3-Pyridyl)-4-thiazolyl)methyl)-5-(3,4-dimethoxyphenyl)-gamma-butyrolactol ether], the pIC50 in test [1] is 5.00. For the same molecule, the ED50 in test [2] amounted to 120 µg/kg. `Cc1nc2cnccc2n1CCCOC1CCC(c2ccc(Br)cc2)O1` (stereo not drawn) [Example 34, O-(3-(1H-2-Methylimidazo[4,5-c]pyridyl)propyl)-5-(4-bromophenyl)-gamma-butyrolactol ether] gave a pIC50 in test [1] of 8.00. As for `COc1ccc(C2CCC(OCCCn3c(C)nc4cnccc43)O2)cc1Cl` (stereo not drawn) [Example 36, O-(3-(1H-2-Methylimidazo[4,5-c]pyridyl)propyl)-5-(3-chloro-4-methoxyphenyl)-gamma-butyrolactol ether], the pIC50 in test [1] was 8.52. The ED50 in test [2] worked out at 2 µg/kg. In test [1], `COc1ccc(C2CCC(OCCCn3c(C)nnc3C)O2)cc1OC` (stereo not drawn) [Example 29, O-(3-(3,5-Dimethyl-1,2,4-triazol-4-yl)propyl)-5-(3,4-dimethoxyphenyl)-gamma-butyrolactol ether] showed a pIC50 of 6.60. `COc1ccc([C@H]2CC[C@H](OCCCc3cccnc3)O2)cc1OC` (relative stereo) [Example 1A, trans-O-(3-(3-pyridyl)propyl)-5-(3,4-dimethoxyphenyl)-gamma-butyrolactol ether] had a negative-log IC50 (pIC50) in test [1] of 5.40. In test [2], the median effective dose (ED50) came to 27 µg/kg.

For `Cc1nc2cnccc2n1CCCOC1CCC(c2ccc(Cl)c(Cl)c2)O1` (stereo not drawn) [Example 35, O-(3-(1H-2-Methylimidazo[4,5-c]pyridyl)propyl)-5-(3,4-dichlorophenyl)-gamma-butyrolactol ether], the pIC50 in test [1] was 8.30. Besides, in test [2], the ED50 worked out at 2 µg/kg. As to `COc1ccc(C2CCC(OCc3ccc(Cn4c(C)nc5ccccc54)cc3)O2)cc1OC` (stereo not drawn) [Example 24, O-((4-(1H-2-Methylbenzimidazylmethyl)phenyl)methyl)-5-(3,4-dimethoxyphenyl)-gamma-butyrolactol ether], the pIC50 in test [1] is 5.70.

In test [1], `COc1ccc([C@H]2CC[C@H](OCCCc3ccc[n+](C)c3)O2)cc1OC` (relative stereo) [Comparative Example A, trans-O-(3-(3-N-methylpyridyl)propyl)-5-(3,4-dimethoxyphenyl)-gamma-butyrolactol ether iodide, reference compound] gave a pIC50 of 5.52. Besides, in test [2], the “inhibition of PAF-induced hypotension” value is on record as 31% and the ED50 is over 1000 µg/kg.

As for `COc1ccc([C@H]2CC[C@@H](OCCCn3c(C)nc4cnccc43)O2)cc1OC` (relative stereo) [Example 30A, O-(3-(1H-2-Methylimidazo[4,5-c]pyridyl)propyl)-5-(3,4-dimethoxyphenyl)-gamma-butyrolactol ether], the pIC50 in test [1] is 7.60.

Take `COc1ccc(C2CCC(OC(C)CCc3cccnc3)O2)cc1OC` (stereo not drawn) [Example 12, O-(1-Methyl-3-(3-pyridyl)propyl)-5-(3,4-dimethoxyphenyl)-gamma-butyrolactolether]: in test [1], the negative-log IC50 (pIC50) is 5.52. Consider `COc1ccc(C2CCC(OCCCCc3cccnc3)O2)cc1OC` (stereo not drawn) [Example 3, O-(4-(3-Pyridyl)butyl)-5-(3,4-dimethoxyphenyl)-gamma-butyrolactol ether], for which, in test [1], the pIC50 was 5.22.

Regarding `COc1ccc([C@H]2CC[C@H](OC/C=C/c3cccnc3)O2)cc1OC` (relative stereo) [Example 10A, E-O-(3-(3-Pyridyl)prop-2-enyl)-5-(3,4-dimethoxyphenyl)-gamma-butyrolactol ether], the pIC50 in test [1] is 6.00. With `COc1ccc([C@H]2CC[C@@H](OC/C=C/c3cccnc3)O2)cc1OC` (relative stereo) [Example 10B, E-O-(3-(3-Pyridyl)prop-2-enyl)-5-(3,4-dimethoxyphenyl)-gamma-butyrolactol ether], the pIC50 in test [1] was 6.82. Turning to `COc1ccc([C@H]2CC[C@@H](OCCCc3ccc[n+](C)c3)O2)cc1OC` (relative stereo) [Comparative Example B, cis-O-(3-(3-N-methylpyridyl)propyl)-5-(3,4-dimethoxyphenyl)-gamma-butyrolactol ether iodide, reference compound], the pIC50 in test [1] was 6.00. In addition, in test [2], the “inhibition of PAF-induced hypotension” value is on record as 10% and the ED50 is over 1000 µg/kg.

Molecule `COc1ccc(C2CCC(OCCCC#Cc3cccnc3)O2)cc1OC` (stereo not drawn) [Example 4, O-(5-(3-Pyridyl)pent-4-ynyl)-5-(3,4-dimethoxyphenyl)-gamma-butyrolactol ether] had a pIC50 in test [1] of 5.30. With `COc1ccc([C@H]2CC[C@H](OCCCCC#Cc3cccnc3)O2)cc1OC` (relative stereo) [Example 6A, O-(6-(3-Pyridyl)hex-5-ynyl)-5-(3,4-dimethoxyphenyl)-gamma-butyrolactol ether], the pIC50 in test [1] was 5.52. Regarding `Cc1nc2cnccc2n1CCCOC1CCC(c2ccc(F)cc2)O1` (stereo not drawn) [Example 33, O-(3-(1H-2-Methylimidazo[4,5-c]pyridyl)propyl)-5-(4-fluorophenyl)-gamma-butyrolactol ether], the pIC50 in test [1] was 8.15. Also, the ED50 in test [2] amounted to 1 µg/kg. In turn, `COc1ccc([C@H]2CC[C@H](OCCCC/C=C\c3cccnc3)O2)cc1OC` (relative stereo) [Example 7A, Z-O-(6-(3-Pyridyl)hex-5-enyl)-5-(3,4-dimethoxyphenyl)-gamma-butyrolactol ether] had a pIC50 in test [1] of 4.92. With `COc1ccc(C2CCC(OCc3ccc(-n4c(C)nc5ccccc54)cc3)O2)cc1OC` (stereo not drawn) [Example 23, O-((4-(1H-2-Methylbenzimidazyl)phenyl)methyl)-5-(3,4-dimethoxyphenyl)-gamma-butyrolactol ether], the pIC50 in test [1] is 6.05.

In test [1], `COc1ccc(C2CCC(OCCC#Cc3cccnc3)O2)cc1OC` (stereo not drawn) [Example 2, O-(4-(3-Pyridyl)but-3-ynyl)-5-(3,4-dimethoxyphenyl)-gamma-butyrolactol ether] showed a pIC50 of 5.40. Same read-out and setting: in the case of `COc1ccc([C@H]2CC[C@@H](OCCCCCc3cccnc3)O2)cc1OC` (relative stereo) [Example 5B, O-(5-(3-Pyridyl)pentyl)-5-(3,4-dimethoxyphenyl)-gamma-butyrolactol ether] it was 5.82. `COc1ccc(C2CCC(OCCCC/C=C\c3cccnc3)O2)cc1OC` (stereo not drawn) [Example 7B, Z-O-(6-(3-Pyridyl)hex-5-enyl)-5-(3,4-dimethoxyphenyl)-gamma-butyrolactol ether] had a pIC50 in test [1] of 5.70.
